The test system of one assay is nitrification. Put plainly: Table 1 summary: compounds found to work or not work as nitrification inhibitors, Inhib(%). More on the design: concentration or dose not given beside the values. The note with it: test and rate not given. Here is the method:
The phenotypic screening involved assessing the nitrification inhibition potency of the selected 5000 compounds against a key ammonia oxidizing bacterium responsible for ammonia oxidation in the soil, Nitrosomonas europaea, in 96-well microtiter plates. N. europaea cells were grown in the presence of an ammonium source, and the potential of putative nitrification inhibitors to inhibit the production of nitrite (NO2) was measured relative to untreated cells.
A summary of selected compounds initially found to either work or not work as nitrification inhibitors is detailed in Table 1 below.

Assay [1] relates to nitrification in the soil. The assay is described as follows: Laboratory soil incubation, Templeton sandy loam with synthetic cow urine, nitrate-N. The note with it: for nitrate-N concentration in the soil compared with urine alone or urine+DMSO / reducing the nitrification rate compared with DCD: day 30; for % reduction by NI (nitrate-N): vs urine alone, 30 days; for reducing the nitrification rate compared with DCD: compound at 2 kg/ha vs DCD at 10 kg/ha; for Nitrate-N: 30 days of incubation. Here is the method:
A Templeton sandy loam was used in this experiment. 500 g of soil (dry weight basis) was packed into a pottle. 50 mL of synthetic cow urine with an N concentration of 7 g N/L (comprising about 87% urea-N and 13% glycine-N) was applied to the soil (equivalent to 700 kg N/ha on weight basis, assuming bulk density of 1 g/cm^3 in the top 10 cm of soil). The 700 kg N/ha application was used to simulate the urine-N application rate under a typical dairy cow urine patch in a grazed pasture.
Control treatments also added to soil were: • urine alone (50 mL); • DMSO (equivalent to 0.9 mL/500 g soil)+urine (50 mL) to determine the effect of DMSO on nitrification rate; • water alone (50 mL) (simulating areas of the soil where no urine was deposited).
Pottles were covered with lids with breathing holes to allow for gas exchange during incubation. Pottles were incubated at 12° C. Soil moisture content was maintained at field capacity by adjusting on weight basis twice a week.
Soil samples were collected and were then thoroughly mixed and subsamples were extracted in a potassium chloride solution and analysed for mineral-N. Soil moisture content was also determined. Samples were taken at 30 days after the start of incubation. […]

Assay [2] deals with N2O emissions in the soil. Put plainly: Field study of nitrous oxide emissions, static gas chamber method, urine-treated pasture soil. To be noted: for nitrous oxide reductions compared with DCD: sprayed onto urine-treated pasture soil. As to the method:
(§1) This study was conducted on the Lincoln University Research Dairy Farm, and the soil was a Templeton sandy loam with established perennial ryegrass (Lolium perenne) and white clover (Trifolium repens.) pasture. Metal rings (500 mm diameter and 200 mm height) were inserted into the ground. A water trough sitting on top of the metal rings allowed the placement of static chambers sitting on top of the water trough to provide a gas-tight seal to allow N2O gas sampling.
Synthetic urine with a nitrogen concentration of 7 g N/L was applied to the soil plots confined within the metal rings at the equivalent rate of 700 kg N/ha. […] The plots were irrigated with irrigation water in accordance with local dairy farming practice.
(§2) The gas chamber (500 mm diameter and 120 mm height) was constructed of a metal cylinder insulated with 2.5 cm thick polystyrene foam to avoid heating of the atmosphere in the chamber during sampling. During periods of N2O measurement, the edge of the chamber was placed inside the small water trough which was mounted around the top of each metal ring for gas sampling. At each sampling time, the chamber was placed on top of the soil ring for a total of 40 minutes, and 3 samples, 20 minutes apart, were taken using a syringe through a rubber septum on top of the gas chamber. Samples were taken twice weekly. Each sampling was carried out during the middle of the day between 12:00 h to 14:00 h (Di et al., 2007). The N2O concentration in the samples was analysed using a gas chromatograph (SRI8610C with an Electron Capture Detector (ECD) (SRI Instruments, USA) linked to a Gilson 222XL autosampler (Gilson, France)
as §1, with “To determine the effect of treating the soil with 2-ethynyl-5-methoxypyridine on nitrous oxide emissions under field soil conditions, a field study was conducted using the static gas chamber method. This” for “This”
Synthetic urine with a nitrogen concentration of 7 g N/L was applied to the soil plots confined within the metal rings at the equivalent rate of 700 kg N/ha. 196.25 mg or 39.2 mg of 2-ethynyl-5-methoxypyridine were dissolved in 2 mL DMSO, mixed with 1000 mL of water, and then sprayed on to the mini-plots at the rates of 196.25 mg/plot and 39.2 mg/plot, equivalent to 10 kg/ha and 2 kg/ha, respectively. The plots were irrigated with irrigation water in accordance with local dairy farming practice.
as §2, with “France).” for “France)”
To determine the effect of treating the soil with 3-ethynylpyridine 1-oxide on nitrous oxide emissions under field soil conditions, a field study was conducted using the static gas chamber method. […]

Counter-ions that a name gives are not always drawn.

With `C#Cc1c[nH]c(=O)[nH]c1=O` [5-ethynyl-2,4(1H,3H)-pyrimidinedione, reference compound], the “Inhib(%)” value with nitrification came to 0%.

In the case of `C#Cc1ccc(C#C)nc1` [2,5-diethynylpyridine], in the assay on nitrification, the “Inhib(%)” value is reported as 100%. Moreover, the “nitrate-N concentration in the soil compared with urine alone or urine+DMSO” value in assay [1] (2 kg/ha) is recorded as “lower nitrate-N concentrations”.

For the compound `C#Cc1cnc(C#C)nc1` [2,5-diethynylpyrimidine, reference compound], the “Inhib(%)” value in the assay on nitrification turned out to be 60%.

In the case of `C#Cc1ccc(OC(F)(F)F)cc1` [1-ethynyl-4-(trifluoromethoxy)benzene, reference compound], the “Inhib(%)” value in the assay with nitrification was determined as 8%.

As for `C#Cc1ncccn1` [2-Ethynyl 1,3 Diazine, 2-Ethynylpyrimidine], in assay [2] (2 kg/ha, vs urine alone), the “% reduction by NI (N2O emissions)” value is reported as 91%. The “nitrous oxide reductions compared with DCD” value (“nitrous oxide reductions” below) in assay [2] is “greater than that by DCD”. In addition, the figures for the N2O emissions in assay [2] (urine + inhibitor at 2 kg/ha) and in assay [2] (urine + inhibitor at 10 kg/ha) were 1.2 kg N2O—N/ha and 0.53 kg N2O—N/ha, respectively. Besides, the “Inhib(%)” value in the assay with nitrification is on record as 94%. Besides, the “% reduction by NI (nitrate-N)” value in assay [1] (0.5 kg/ha) was determined as 96%; in assay [1] (1 kg/ha) it was 98%; in assay [1] (2 kg/ha) it was 84%. Also, the “reducing the nitrification rate compared with DCD” value (“reducing the nitrification rate” below) in assay [1] is recorded as “more effective than DCD”. Also, the results for the Nitrate-N in assay [1] (urine + inhibitor at 0.5 kg/ha), in assay [1] (urine + inhibitor at 1 kg/ha) and in assay [1] (urine + inhibitor at 2 kg/ha) were 17.5 mg N/kg soil, 9.1 mg N/kg soil and 31.8 mg N/kg soil, respectively.

As for `C#Cc1cccnn1` [3-Ethynylpyridazine], the “nitrate-N concentration in the soil compared with urine alone or urine+DMSO” value in assay [1] (0.5 kg/ha) is recorded as “lower nitrate-N concentrations”; in assay [1] (1 kg/ha) it was “lower nitrate-N concentrations”; in assay [1] (2 kg/ha) it was “significantly lower nitrate-N concentrations”. In addition, the “% reduction by NI (nitrate-N)” value in assay [1] (0.5 kg/ha) amounted to 91%; in assay [1] (1 kg/ha), 98%; in assay [1] (2 kg/ha), 95%. The “reducing the nitrification rate” value in assay [1] is given as “more effective than DCD”. The values for the Nitrate-N in assay [1] (urine + inhibitor at 0.5 kg/ha), in assay [1] (urine + inhibitor at 1 kg/ha) and in assay [1] (urine + inhibitor at 2 kg/ha) were 35.5 mg N/kg soil, 10.3 mg N/kg soil and 10.5 mg N/kg soil, respectively.

As to `C#Cc1ccc(OC)cn1` [2-ethynyl-5-methoxypyridine], the “nitrous oxide reductions” value in assay [2] is on record as “greater than that by DCD”. The N2O emissions in assay [2] (urine + inhibitor at 2 kg/ha) and in assay [2] (urine + inhibitor at 10 kg/ha) was 2 kg N2O—N/ha each time. The “Inhib(%)” value in the assay on nitrification is listed as 100%. The figures for the “nitrate-N concentration in the soil compared with urine alone or urine+DMSO” value in assay [1] (0.5 kg/ha), in assay [1] (1 kg/ha) and in assay [1] (2 kg/ha) were “lower nitrate-N concentrations”, “lower nitrate-N concentrations” and “significantly lower nitrate-N concentrations”, respectively. Besides, the “% reduction by NI (nitrate-N)” value came to 93% in assay [1] (0.5 kg/ha), 97% in assay [1] (1 kg/ha) and 78% in assay [1] (2 kg/ha). In addition, the “reducing the nitrification rate” value in assay [1] is “more effective than DCD”. Also, the Nitrate-N is reported as 28.6 mg N/kg soil in assay [1] (urine + inhibitor at 0.5 kg/ha), 13.8 mg N/kg soil in assay [1] (urine + inhibitor at 1 kg/ha) and 100 mg N/kg soil in assay [1] (urine + inhibitor at 2 kg/ha).

`C#Cc1ccncn1` [4-Ethynylpyrimidine]: the “Inhib(%)” value in the assay with nitrification is on record as 100%. The “nitrate-N concentration in the soil compared with urine alone or urine+DMSO” value in assay [1] (1 kg/ha) was “lower nitrate-N concentrations”; in assay [1] (2 kg/ha), “significantly lower nitrate-N concentrations”. In assay [1], the “reducing the nitrification rate” value is listed as “more effective than DCD”.

Regarding `C#CC1CCN(C(C)=O)CC1` [1-(4-ethynyl-1-piperidinyl)ethanone, reference compound], the “Inhib(%)” value in the assay with nitrification came out at 0%.

On to `C#Cc1cncnc1` [3-Ethynyl 1,5 Diazine, 5-Ethynylpyrimidine], for which, in assay [2], the “nitrous oxide reductions” value is reported as “greater than that by DCD”. Also, the results for the N2O emissions in assay [2] (urine + inhibitor at 2 kg/ha) and in assay [2] (urine + inhibitor at 10 kg/ha) were 0.89 kg N2O—N/ha and 0.92 kg N2O—N/ha, respectively. Further, the “Inhib(%)” value in the assay with nitrification turned out to be 95%. In addition, the “% reduction by NI (nitrate-N)” value in assay [1] (0.5 kg/ha) came to 70%; in assay [1] (1 kg/ha) it was 97%; in assay [1] (2 kg/ha), 84%. For the same compound, in assay [1], the “reducing the nitrification rate” value is listed as “more effective than DCD”. Besides, the Nitrate-N is 118.1 mg N/kg soil in assay [1] (urine + inhibitor at 0.5 kg/ha), 13.3 mg N/kg soil in assay [1] (urine + inhibitor at 1 kg/ha) and 31.6 mg N/kg soil in assay [1] (urine + inhibitor at 2 kg/ha).

Regarding `C#Cc1cnccn1` [2-ethynylpyrazine], the “reducing the nitrification rate” value in assay [1] is on record as “more effective than DCD”.

For `C#Cc1ccc(OCCCCC)cc1` [1-ethynyl-4-pentoxybenzene, reference compound], in the assay on nitrification, the “Inhib(%)” value turned out to be 2%.

For the compound `C#Cc1cc[n+](O)cc1` [4-ethynylpyridine 1-oxide, reference compound], in the assay with nitrification, the “Inhib(%)” value was determined as 18%.

For `C#Cc1ccc(C#C)cc1` [1,4-diethynylbenzene], in the assay with nitrification, the “Inhib(%)” value is listed as 100%. In addition, the “nitrate-N concentration in the soil compared with urine alone or urine+DMSO” value in assay [1] (2 kg/ha) is recorded as “significantly lower nitrate-N concentrations”. For the same compound, the “reducing the nitrification rate” value in assay [1] is given as “more effective than DCD”.

As for `C#CC1CCNCC1` [4-ethynylpiperidine hydrochloride, reference compound], the “Inhib(%)” value with nitrification was found to be 0%.

As to `C#Cc1ccc(OCC)cc1` [1-ethoxy-4-ethynylbenzene], in the assay with nitrification, the “Inhib(%)” value is given as 100%. For the same compound, in assay [1] (2 kg/ha), the “nitrate-N concentration in the soil compared with urine alone or urine+DMSO” value was “significantly lower nitrate-N concentrations”. Also, in assay [1], the “reducing the nitrification rate” value is recorded as “more effective than DCD”.

Take `C#Cc1ccc(OC)nc1` [5-ethynyl-2-methoxypyridine]: the “Inhib(%)” value with nitrification is reported as 100%. In addition, in assay [1] (2 kg/ha), the “nitrate-N concentration in the soil compared with urine alone or urine+DMSO” value is given as “lower nitrate-N concentrations”.

On to `C#Cc1ccc(O)cc1` [4-ethynylphenol, reference compound], for which the “Inhib(%)” value with nitrification is listed as 0%.

The record behind these values is patent US11578013B2, “Nitrification inhibitors” (Lincoln University, priority 2020, dated 2023).
